Data taken from PubChem BioAssay (NCI).
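All cell lines were grown in 96-well plates and treated with compound for 48 hours. GI50 marks 50% less growth. TGI marks complete inhibition of growth.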

Assays:
Assay in all cases: inhibition of tumour cell growth, NCI panel, 48 h
COLO 205 colon = tested on: COLO 205 colon
HCC-2998 colon = tested on: HCC-2998 colon
HOP-92 NSCLC = tested on: HOP-92 NSCLC
M14 melanoma = tested on: M14 melanoma
OVCAR-3 ovarian = tested on: OVCAR-3 ovarian
SK-MEL-28 melanoma = tested on: SK-MEL-28 melanoma
SN12C renal = tested on: SN12C renal
SNB-75 CNS = tested on: SNB-75 CNS
SW-620 colon = tested on: SW-620 colon
U251 CNS = tested on: U251 CNS

| SMILES | GI50 (COLO 205 colon) [µM] | TGI (COLO 205 colon) [µM] | GI50 (HCC-2998 colon) [µM] | TGI (HCC-2998 colon) [µM] | GI50 (HOP-92 NSCLC) [µM] | TGI (HOP-92 NSCLC) [µM] | GI50 (M14 melanoma) [µM] | TGI (M14 melanoma) [µM] | GI50 (OVCAR-3 ovarian) [µM] | TGI (OVCAR-3 ovarian) [µM] | GI50 (SK-MEL-28 melanoma) [µM] | TGI (SK-MEL-28 melanoma) [µM] | GI50 (SN12C renal) [µM] | TGI (SN12C renal) [µM] | GI50 (SNB-75 CNS) [µM] | TGI (SNB-75 CNS) [µM] | GI50 (SW-620 colon) [µM] | TGI (SW-620 colon) [µM] | GI50 (U251 CNS) [µM] | TGI (U251 CNS) [µM] |
| --- | --- | --- | --- | --- | --- | --- | --- | --- | --- | --- | --- | --- | --- | --- | --- | --- | --- | --- | --- | --- |
| CCC(=O)N1C/C(=C/c2ccc(Br)cc2)C(=O)/C(=C/c2ccc(Br)cc2)C1 | 0.611 | 1.74 | 0.802 | 2.09 | 1.69 | 4.13 | 0.885 | 2.7 | 0.588 | 1.56 | 1.53 | 3.13 | 0.424 | 1.58 | 2.34 | 9.71 | 0.22 | 0.82 | 0.24 | 0.763 |
| CCCCCCCCCCNCCSS(=O)(=O)O | 13 | 27.2 | 1.73 | 3.19 | 8.84 | 25.7 | 0.425 | 2.64 | 1.98 | 3.46 | 1.65 | 4.84 | 1.86 | 3.6 | 2.23 | 4.22 | 1.95 | 4.32 | 1.99 | 4.12 |
| C#C[C@@]1(O)[C@@H](CO)O[C@@H](n2cc(C(F)(F)F)c3c(N)ncnc32)[C@@H]1O | 0.255 | 1.27 | 0.423 | 4.24 | 1.24 | 7.46 | 0.724 | 3.56 | 0.727 | 4.89 | 1.83 | 10 | 0.658 | > 100 | 1.12 | 3.42 | 0.349 | > 21.7 | 0.409 | – |
| CCN(CC)c1ccc(-c2cc(-c3cc(OC)c(OC)c(OC)c3)nc(N3CCC(O)CC3)c2C#N)cc1 | 0.488 | 2.11 | 0.374 | 2.13 | 0.215 | 0.689 | 0.262 | 0.799 | 1.17 | 3.02 | 0.879 | 3.76 | 0.626 | 3.19 | 0.321 | 3.04 | 0.448 | 12.7 | 0.398 | 1.8 |
| COc1ccc(-c2cc(-c3ccc(Cl)cc3)nc(NCCCCNc3ccnc4cc(Cl)ccc34)n2)cc1 | 1.86 | 4.53 | 1.93 | 3.71 | 1.67 | 18.3 | 2.34 | 6.3 | 1.65 | 3.11 | 1.76 | 3.32 | 1.5 | 3.18 | 10 | 22.1 | 1.76 | 3.46 | 11 | 23.8 |
| O=C1Cc2cc(CCn3cncn3)c(Cl)cc2N1 | 23.3 | > 100 | > 100 | > 100 | 3.02 | > 100 | 3.98 | > 100 | > 100 | > 100 | 21 | > 100 | > 100 | > 100 | 13.2 | > 100 | 6.6 | > 100 | 14.5 | > 100 |
